# PMC7501296, “Rapid and direct control of target protein levels with VHL-recruiting dTAG molecules” (Nature Communications, 2020)
# Where “and” joins values, the source holds several entries; their conditions need not be identical. Identical values can stand only once.
# Experiments:
# Format in all cases: cell-based
# [1] = molecular target: T1, FKBP12^F36V-Nluc (Homo sapiens, UniProt P62942, F37V); experiment: FKBP12F36V-Nluc dual luciferase assay (293FT); conditions: 293FT, 24 h
# T1 construct: expressed in transfected cells; host or cells: 293FT
# Procedure, shortened: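 293FT cells expressing FKBP12^WT-Nluc or FKBP12^F36V-Nluc with Fluc were treated with compound for 24 h at 37 °C. Fluc, then Nluc, luminescence was read with Dual-Glo reagents. Values are DMSO-normalised Nluc/Fluc ratios.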
# [2] = tested on: PATU-8902 LACZ-FKBP12^F36V clone; experiment: Antiproliferation, PATU-8902 LACZ-FKBP12F36V clone, 3D-spheroid (CellTiter-Glo); conditions: 120 h
# Procedure, shortened: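 Viability of cells grown as ultra-low adherent 3D-spheroids was determined with the CellTiter-Glo reagent (Promega). Luminescence was read on either an Envision 2104 plate reader (PerkinElmer) or a Fluostar Omega Reader (BMG Labtech). The resulting data were analyzed with GraphPad PRISM v8.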
# [3] = tested on: PATU-8902 LACZ-FKBP12^F36V clone; experiment: Antiproliferation, PATU-8902 LACZ-FKBP12F36V clone, 2D-monolayer (CellTiter-Glo)
# Procedure, shortened: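 Viability of cells grown as 2D-adherent monolayers was determined with the CellTiter-Glo luminescent reagent (Promega). Luminescence signals were read on either an Envision 2104 plate reader (PerkinElmer) or a Fluostar Omega Reader (BMG Labtech), and the resulting data were processed and analyzed in GraphPad PRISM v8 software.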
# [4] = tested on: PATU-8902 FKBP12^F36V-KRAS^G12V; KRAS^-/- clone; experiment: Antiproliferation, PATU-8902 FKBP12F36V-KRASG12V; KRAS-/- clone, 2D-monolayer (CellTiter-Glo)
# [5] = log10[compound] (M) -5.69897, replicate values
# [6] = log10[compound] (M) -6.19897, replicate values
# [7] = log10[compound] (M) -6.69897, replicate values
# [8] = log10[compound] (M) -7.19897, replicate values
# [9] = log10[compound] (M) -7.69897, replicate values
# [10] = log10[compound] (M) -8.19897, replicate values
# [11] = log10[compound] (M) -8.69897, replicate values
# [12] = log10[compound] (M) -9.19897, replicate values
# [13] = log10[compound] (M) -9.69897, replicate values
# [14] = log10[compound] (M) -10.199, replicate values
# T1 sequence (P62942 2-108 F37V limits assumed): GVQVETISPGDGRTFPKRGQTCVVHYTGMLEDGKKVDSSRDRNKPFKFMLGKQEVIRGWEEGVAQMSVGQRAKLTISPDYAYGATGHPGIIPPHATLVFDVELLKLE
smiles,measurement,setting,value
CCC(C(=O)N1CCCCC1C(=O)OC(CCc1ccc(OC)c(OC)c1)c1ccccc1OCC(=O)NCCCCCCC(=O)NC(C(=O)N1CC(O)CC1C(=O)NC(C)c1ccc(-c2scnc2C)cc1)C(C)(C)C)c1cc(OC)c(OC)c(OC)c1 (stereo not shown) [dTAG^V-1-NEG],Degradation of FKBP12F36V-Nluc (in words),[1],no activity
same,DMSO-normalized antiproliferation,"[2]; log10[compound] (M) -5.69897, single replicates",68.4913 and 65.8862 and 68.8321 and 78.0465
same,DMSO-normalized antiproliferation,"[2]; log10[compound] (M) -6.19897, single replicates",88.8571 and 103.865 and 101.246 and 98.2508
same,DMSO-normalized antiproliferation,"[2]; log10[compound] (M) -6.69897, single replicates",91.2022 and 101.677 and 109.864 and 107.932
same,DMSO-normalized antiproliferation,"[2]; log10[compound] (M) -7.19897, single replicates",113.68 and 101.811 and 126.495 and 101.479
same,DMSO-normalized antiproliferation,"[2]; log10[compound] (M) -7.69897, single replicates",124.531 and 121.356 and 110.765 and 105.317
same,DMSO-normalized antiproliferation,"[2]; log10[compound] (M) -8.19897, single replicates",119.921 and 92.6191 and 101.851 and 115.03
same,DMSO-normalized antiproliferation,"[2]; log10[compound] (M) -8.69897, single replicates",108.505 and 98.1611 and 108.837 and 115.846
same,DMSO-normalized antiproliferation,"[2]; log10[compound] (M) -9.19897, single replicates",113.362 and 108.537 and 123.253 and 101.067
same,DMSO-normalized antiproliferation,"[2]; log10[compound] (M) -9.69897, single replicates",112.187 and 102.493 and 128.974 and 86.9201
same,DMSO-normalized antiproliferation,"[2]; log10[compound] (M) -10.199, single replicates",94.0987 and 98.1746 and 115.316 and 84.3777
same,DMSO-normalized antiproliferation,[3]; [5],11.5867 and 14.0973 and 18.4019 and 18.5068
same,DMSO-normalized antiproliferation,[3]; [6],63.5123 and 73.6517 and 63.5598 and 74.3207
same,DMSO-normalized antiproliferation,[3]; [7],93.1863 and 113.355 and 96.7633 and 104.117
same,DMSO-normalized antiproliferation,[3]; [8],100.081 and 106.556 and 105.951 and 130.27
same,DMSO-normalized antiproliferation,[3]; [9],138.495 and 100.848 and 147.738 and 83.6486
same,DMSO-normalized antiproliferation,[3]; [10],143.617 and 87.8737 and 136.886 and 159.708
same,DMSO-normalized antiproliferation,[3]; [11],153.483 and 88.4456 and 121.366 and 127.155
same,DMSO-normalized antiproliferation,[3]; [12],128.036 and 98.5375 and 110.326 and 91.7687
same,DMSO-normalized antiproliferation,[3]; [13],126.211 and 97.7702 and 97.5063 and 90.8491
same,DMSO-normalized antiproliferation,[3]; [14],118.887 and 87.4707 and 131.584 and 99.1889
same,DMSO-normalized antiproliferation,[4]; [5],4.32 and 6.388 and 6.155 and 5.991
same,DMSO-normalized antiproliferation,[4]; [6],32.3489 and 36.7324 and 47.9927 and 46.6785
same,DMSO-normalized antiproliferation,[4]; [7],83.4764 and 91.9957 and 98.0856 and 85.7695
same,DMSO-normalized antiproliferation,[4]; [8],140.095 and 133.654 and 96.5457 and 87.6299
same,DMSO-normalized antiproliferation,[4]; [9],124.703 and 107.666 and 124.781 and 104.227
same,DMSO-normalized antiproliferation,[4]; [10],100.524 and 126.087 and 110.25 and 83.3074
same,DMSO-normalized antiproliferation,[4]; [11],126.672 and 110.141 and 94.4012 and 101.209
same,DMSO-normalized antiproliferation,[4]; [12],119.782 and 117.251 and 170.771 and 120.652
same,DMSO-normalized antiproliferation,[4]; [13],93.2126 and 100.867 and 84.0534 and 89.6654
same,DMSO-normalized antiproliferation,[4]; [14],113.321 and 95.7713 and 117.376 and 100.982
